According to PubChem BioAssay AID651790 (The Scripps Research Institute Molecular Screening Center, 2012):
Calls of active or inactive are those of the source. The rule behind the calls is not given here.

These molecules were tested on cells with GAA30 frataxin promoter-luciferase, luminescence (assay: short-repeat frataxin promoter luciferase activation – cell-based, luminescence, GAA30 repeat, counter-screen for GAA850 frataxin promoter activators, dose response (AID 651790)).
`Fc1ccc(-c2nnc(Nc3nc4c(F)cccc4s3)o2)cc1` showed an EC50 of 0.634 µM. For `Clc1ccc(-c2nnc(Nc3nc4cc5c(cc4s3)OCO5)o2)cc1`, the EC50 was > 59.6 µM (inactive). With `COc1ccc(-c2nnc(Nc3nc4ccc(SC)cc4s3)o2)c(OC)c1` the EC50 was > 59.6 µM (inactive). With `Cn1c(SCC(=O)NCC2CCCO2)ncc(C(=O)Nc2ccc(F)cc2)c1=O` (stereo not drawn) the EC50 was > 59.6 µM (inactive). With `Clc1ccccc1-c1nnc(Nc2nc3cc4c(cc3s2)OCO4)o1` the EC50 was 53.1 µM (inactive). `COc1ccccc1-c1nnc(Nc2nc3c(OC)cccc3s2)o1` was tested, and the EC50 was > 59.6 µM (inactive). `COc1ccc(-c2nnc(Nc3nc4ccc(F)cc4s3)o2)c(OC)c1` was tested, and the EC50 was > 59.6 µM (inactive). For `CSc1ccc2nc(Nc3nnc(-c4ccc5c(c4)OCCO5)o3)sc2c1`, the EC50 was > 59.6 µM (inactive). `COc1ccccc1NC(=O)c1cnc(SCC(=O)Nc2nc3ccccc3s2)n(C)c1=O` was tested, and the EC50 was > 59.6 µM (inactive). In the case of `COc1ccccc1NC(=O)c1cnc(SCC(=O)NCCc2ccccc2)n(C)c1=O`, the EC50 is reported as > 59.6 µM (inactive). With `COc1ccc(-c2nnc(Nc3nc4cc(OC)ccc4s3)o2)c(OC)c1` the EC50 was > 59.6 µM (inactive). `Fc1cccc2sc(Nc3nnc(-c4ccccc4Cl)o3)nc12` showed an EC50 of 4.95 µM. `COc1cccc2sc(Nc3nnc(-c4ccccc4)o3)nc12` was tested, and the EC50 was > 59.6 µM (inactive). For `COc1cccc2sc(Nc3nnc(-c4ccccc4Cl)o3)nc12`, the EC50 was > 59.6 µM (inactive). In the case of `CSc1ccc2nc(Nc3nnc(-c4ccccc4Cl)o3)sc2c1`, the EC50 is reported as 27.6 µM (inactive). With `COc1ccccc1CNC(=O)CSc1ncc(C(=O)Nc2ccccc2)c(=O)n1C` the EC50 was > 59.6 µM (inactive). `COc1ccc(-c2nnc(Nc3nc4ccc(OC)cc4s3)o2)c(OC)c1` was tested, and the EC50 was > 59.6 µM (inactive). For `COc1ccccc1NC(=O)c1cnc(SCC(=O)NCc2ccc3c(c2)OCO3)n(C)c1=O`, the EC50 was > 59.6 µM (inactive). `Fc1ccc2nc(Nc3nnc(-c4ccccc4Cl)o3)sc2c1` was tested, and the EC50 was > 59.6 µM (inactive). `Cc1ccc(NC(=O)c2cnc(SCC(=O)Nc3cccc(C(F)(F)F)c3)n(C)c2=O)cc1C` was tested, and the EC50 was 28.7 µM (inactive). `Cn1c(SCC(=O)NCC2CCCO2)ncc(C(=O)Nc2ccccc2)c1=O` (stereo not drawn) was tested, and the EC50 was > 59.6 µM (inactive). With `COc1ccccc1NC(=O)c1cnc(SCC(=O)Nc2cc(C)on2)n(C)c1=O` the EC50 was > 59.6 µM (inactive). For `COc1ccccc1NC(=O)c1cnc(SCC(=O)Nc2ccc3c(c2)OCO3)n(C)c1=O`, the EC50 was > 59.6 µM (inactive). `COc1ccccc1NC(=O)c1cnc(SCC(=O)NCc2ccccc2)n(C)c1=O` was tested, and the EC50 was > 59.6 µM (inactive). With `COc1ccc(-c2nnc(Nc3nc4c(OC)cccc4s3)o2)cc1` the EC50 was > 59.6 µM (inactive). With `COc1ccccc1NC(=O)c1cnc(SCC(=O)NCC2CCCO2)n(C)c1=O` (stereo not drawn) the EC50 was > 59.6 µM (inactive). `CCc1nnc(NC(=O)CSc2ncc(C(=O)Nc3ccc(C)c(C)c3)c(=O)n2C)s1` was tested, and the EC50 was > 59.6 µM (inactive). With `COc1ccc(-c2nnc(Nc3nc4c(OC)cccc4s3)o2)c(OC)c1` the EC50 was > 59.6 µM (inactive).
